The record followed here is ChEMBL document CHEMBL1138883, “Synthesis and biological evaluation of new asymmetrical bisintercalators as potential antitumor drugs” (2006).

For experiment [1], the system named is PC-3. The experiment can be described thus: Induction of apoptosis in PC3 measured as percentage of early apoptotic cells by biparametric PI/Annexin V assay at 3.6 uM after 48 hrs. The experiment is classed as functional, Homo sapiens.
Experiment [2] has as its system PC-3. The experiment can be described thus: Induction of apoptosis in PC3 cells measured as percentage of living cells by biparametric PI/Annexin V assay at 3.6 uM after 24 hrs. The experiment is classed as functional, Homo sapiens.
For experiment [3], the system named is PC-3. The experiment can be described thus: Induction of apoptosis in PC3 measured as percentage of early apoptotic cells by biparametric PI/Annexin V assay at 3.6 uM after 24 hrs. It counts as functional, Homo sapiens.
For experiment [4], the system named is PC-3. The experiment is described as follows: Induction of apoptosis in PC3 measured as percentage of late apoptotic cells by biparametric PI/Annexin V assay at 3.6 uM after 4 hrs. The experiment is classed as functional, Homo sapiens.
Experiment [5] relates to PC-3. The experiment can be described thus: Induction of apoptosis in PC3 measured as percentage of late apoptotic cells by biparametric PI/Annexin V assay at 3.6 uM after 8 hrs. It counts as functional, Homo sapiens.
Experiment [6] relates to PC-3. The experiment can be described thus: Induction of apoptosis in PC3 cells measured as percentage of living cells by biparametric PI/Annexin V assay at 3.6 uM after 8 hrs. It counts as functional, Homo sapiens.
Experiment [7] relates to PC-3. The experiment is described as follows: Induction of apoptosis in PC3 cells by DNA fragmentation assay. It counts as functional, cell-based. To be noted: Homo sapiens.
In experiment [8] the test system is PC-3. The experiment can be described thus: Induction of apoptosis in PC3 cells measured as percentage of living cells by biparametric PI/Annexin V assay at 3.6 uM after 48 hrs. It counts as functional, Homo sapiens.
The test system of experiment [9] is PC-3. The experiment is described as follows: Induction of apoptosis in PC3 measured as percentage of necrotic cells by biparametric PI/Annexin V assay at 3.6 uM after 8 hrs. It counts as functional, Homo sapiens.
In experiment [10] the test system is PC-3. The experiment can be described thus: Induction of apoptosis in PC3 measured as percentage of early apoptotic cells by biparametric PI/Annexin V assay at 3.6 uM after 8 hrs. The experiment is classed as functional, Homo sapiens.
For experiment [11], the system named is PC-3. The experiment is described as follows: Induction of apoptosis in PC3 measured as percentage of early apoptotic cells by biparametric PI/Annexin V assay at 3.6 uM after 4 hrs. It counts as functional, Homo sapiens.
Experiment [12] relates to PC-3. The experiment is described as follows: Induction of apoptosis in PC3 cells measured as percentage of living cells by biparametric PI/Annexin V assay at 3.6 uM after 4 hrs. It counts as functional, Homo sapiens.
In experiment [13] the test system is PC-3. The experiment is described as follows: Induction of apoptosis in PC3 measured as percentage of necrotic cells by biparametric PI/Annexin V assay at 3.6 uM after 48 hrs. The experiment is classed as functional, Homo sapiens.
For experiment [14], the system named is PC-3. The experiment is described as follows: Induction of necrosis in PC3 cells by DNA fragmentation assay. It counts as functional, cell-based. Particulars: Homo sapiens.
The subject of experiment [15] is PC-3. The experiment is described as follows: Induction of apoptosis in PC3 measured as percentage of late apoptotic cells by biparametric PI/Annexin V assay at 3.6 uM after 24 hrs. The experiment is classed as functional, Homo sapiens.
Experiment [16] in a line: Ratio of K(app) for [A-T] to [G-C].
In experiment [17] the test system is PC-3. The experiment is described as follows: Reduction in PC3 cell viability after 48 hrs by FDA flow cytometer assay. It counts as functional, cell-based. Particulars: Homo sapiens. In general terms: In flow cytometry, cells or beads pass a laser one at a time.
In experiment [18] the test system is PC-3. The experiment can be described thus: Induction of apoptosis in PC3 measured as percentage of late apoptotic cells by biparametric PI/Annexin V assay at 3.6 uM after 48 hrs. The experiment is classed as functional, Homo sapiens.
In experiment [19] the test system is PC-3. The experiment is described as follows: Induction of apoptosis in PC3 measured as percentage of necrotic cells by biparametric PI/Annexin V assay at 3.6 uM after 24 hrs. The experiment is classed as functional, Homo sapiens.
The test system of experiment [20] is PC-3. The experiment can be described thus: Induction of apoptosis in PC3 measured as percentage of necrotic cells by biparametric PI/Annexin V assay at 3.6 uM after 4 hrs. The experiment is classed as functional, Homo sapiens.
Experiment [21] concerns PC-3. The experiment can be described thus: Cytotoxicity against PC3 cells by SRB assay after 48 hrs. It counts as functional. Particulars: Homo sapiens, PC-3, 48 h.

Activity calls are given as the source filed them. No cut-off for these calls is given here.

As to `COc1ccc2nc3c(C(=O)NCCN(C)C)ccc(NCCCN(C)CCCN4C(=O)c5cccc6cccc(c56)C4=O)c3c(O)c2c1.Cl`, the Activity in experiment [1] was determined as 59%; in [2] it was 35.5%; in experiment [3], 25.9%; in [4], 1.2%; in [5], 2.9%; in experiment [6], 62.7%. Also, the Activity in experiment [8] worked out at 2.3%; in [9], 32.9%; in experiment [10], 1.5%; in experiment [11], 1.3%; in experiment [12], 81.1%; in [13], 24.4%. The Activity in experiment [15] is 16.3%; in experiment [17], “Time-dependent effect”; in experiment [18] it was 14.3%; in experiment [19], 22.3%; in experiment [20] it was 16.4%. Also, the result in [7] and in experiment [14] was Active. Further, in experiment [16], the Selectivity ratio came out at 30. In addition, it took 0.16 nM to inhibit growth in [21] by half (GI50). In [21], this compound displayed an LC50 (concentration for 50% net cell kill) of 3600 nM. In [21], the TGI (in general, the concentration at which net growth stops) was found to be 14 nM.
